Key:
[1] = test system: adenylate cyclase activity; settings: cited from earlier work
[2] = prior human studies; cited from earlier work
[3] = test system: group I and group II/III mGluRs; settings: in vitro studies (Hirouchi 2000); cited from earlier work
[4] = test system: dementia-related cognitive impairment; settings: cited from earlier work
ADHD = experiment: open-label Phase Ib clinical trial in adolescent ADHD subjects with CNV in an mGluR network gene; assay type: in vivo, human
Procedure: Previously, an open-label Phase Ib clinical trial was conducted to study the safety, pharmacokinetics, and efficacy of fasoracetam (fasoracetam monohydrate) in adolescent subjects between the ages of 12 and 17 previously diagnosed with ADHD. Each of the study subjects in this clinical trial had one or more CNV in an mGluR network gene.

pediatric ADHD subjects = settings: compared to a placebo control; cited from earlier work

Row | SMILES | adenylate cyclase activity through group II and III mGluRs ([1]; by stimulating group II and III mGluRs (Oka 1997)) | adenylate cyclase activity through group I mGluRs ([1]; through activation of group I mGluRs (Oka 1997)) | bioavailability [2] | half-life [2] | stimulation of mGluRs [3] | safety and tolerability ([4]; Phase I-III trials, dementia-related cognitive impairment) | effects on psychiatric symptoms ([4]; Phase III data, cerebral infarct patients and adult dementia patients with cerebrovascular diseases) | efficacy in dementia ([4]; Phase III trials) | treatment of ADHD (ADHD; adolescent subjects ages 12 to 17 with one or more CNV in an mGluR network gene) | appetite (ADHD; children tested in the ADHD clinical study) | ADHD symptoms (pediatric ADHD subjects)
1 | O=C1CC[C@H](C(=O)N2CCCCC2)N1 [fasoracetam] | may also inhibit adenylate cyclase activity | may stimulate adenylate cyclase activity | 79%-97% | 5 to 6.5 h | stimulate both group I and group II/III mGluRs | generally safe and well tolerated | beneficial effects | did not show sufficient efficacy | successfully treated | appetite was observed to be improved | 
2 | NC(=O)CN1CCCC1=O [piracetam] |  |  |  |  |  |  |  |  |  |  | increase ADHD symptoms

From patent US11779577B2, “Nonselective metabotropic glutamate receptor activators for treatment of anorexia nervosa and binge eating disorder” (The Children's Hospital of Philadelphia, priority 2016, dated 2023)
